# Experimental data: article PMC9476189 (ACS Omega, 2022)
# Legend:
# [1] = target: α-glucosidase (Saccharomyces cerevisiae, UniProt P53341); assay: α-Glucosidase assay; type: biochemical; details: mean ± SEM, triplicate
# [2] = target: T1, LOX (Glycine max, UniProt P08170); assay: Lipoxygenase assay; type: biochemical; details: 0.25 mM; mean ± SEM, triplicate
# T1 sequence (P08170 1-839): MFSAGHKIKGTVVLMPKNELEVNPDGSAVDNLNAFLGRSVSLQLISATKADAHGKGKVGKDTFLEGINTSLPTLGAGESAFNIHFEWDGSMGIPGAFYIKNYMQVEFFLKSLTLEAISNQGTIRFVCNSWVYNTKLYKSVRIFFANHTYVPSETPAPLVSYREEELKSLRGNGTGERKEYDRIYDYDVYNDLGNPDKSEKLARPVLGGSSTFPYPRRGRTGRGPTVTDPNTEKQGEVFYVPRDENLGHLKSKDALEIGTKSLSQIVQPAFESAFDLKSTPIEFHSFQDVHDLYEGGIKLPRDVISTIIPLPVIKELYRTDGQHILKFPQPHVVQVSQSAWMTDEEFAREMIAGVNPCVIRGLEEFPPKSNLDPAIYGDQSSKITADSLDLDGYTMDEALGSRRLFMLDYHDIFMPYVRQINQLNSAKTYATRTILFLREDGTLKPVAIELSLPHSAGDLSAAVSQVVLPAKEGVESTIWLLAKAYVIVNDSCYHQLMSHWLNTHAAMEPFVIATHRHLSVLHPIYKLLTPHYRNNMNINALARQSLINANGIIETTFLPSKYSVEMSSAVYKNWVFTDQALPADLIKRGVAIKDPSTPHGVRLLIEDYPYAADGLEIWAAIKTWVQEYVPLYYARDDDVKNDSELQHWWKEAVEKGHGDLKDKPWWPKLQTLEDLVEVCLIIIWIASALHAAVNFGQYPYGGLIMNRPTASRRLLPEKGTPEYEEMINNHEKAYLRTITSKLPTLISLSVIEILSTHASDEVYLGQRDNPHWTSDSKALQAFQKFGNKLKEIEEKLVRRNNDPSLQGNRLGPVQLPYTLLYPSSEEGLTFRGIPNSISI
# [3] = target: AChE (Homo sapiens, UniProt P22303); details: mean ± SEM, triplicate; for IC50: read-out: AChE inhibition, IC50
# [4] = target: urease (Canavalia ensiformis, UniProt P07374); details: mean ± SEM, triplicate
# [5] = target: BChE (Homo sapiens, UniProt P06276); details: 0.5 mM; mean ± SEM, triplicate
# BChE, sequence (P06276 29-602, species assumed): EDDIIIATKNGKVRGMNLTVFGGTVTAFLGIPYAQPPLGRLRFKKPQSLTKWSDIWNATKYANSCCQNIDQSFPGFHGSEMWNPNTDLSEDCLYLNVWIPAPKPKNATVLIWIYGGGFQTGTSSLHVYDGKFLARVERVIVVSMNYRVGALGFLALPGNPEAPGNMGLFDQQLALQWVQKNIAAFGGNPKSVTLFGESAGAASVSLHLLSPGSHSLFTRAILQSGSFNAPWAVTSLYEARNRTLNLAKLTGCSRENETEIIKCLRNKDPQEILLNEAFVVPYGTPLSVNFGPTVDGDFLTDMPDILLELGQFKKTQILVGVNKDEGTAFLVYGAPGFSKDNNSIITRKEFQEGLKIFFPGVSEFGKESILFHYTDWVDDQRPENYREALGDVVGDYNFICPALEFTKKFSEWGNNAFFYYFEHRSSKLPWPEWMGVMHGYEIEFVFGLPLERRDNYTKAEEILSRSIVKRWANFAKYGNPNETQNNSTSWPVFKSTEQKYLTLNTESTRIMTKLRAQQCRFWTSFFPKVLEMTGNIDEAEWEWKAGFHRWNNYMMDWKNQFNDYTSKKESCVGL
# α-glucosidase, sequence (P53341 whole entry): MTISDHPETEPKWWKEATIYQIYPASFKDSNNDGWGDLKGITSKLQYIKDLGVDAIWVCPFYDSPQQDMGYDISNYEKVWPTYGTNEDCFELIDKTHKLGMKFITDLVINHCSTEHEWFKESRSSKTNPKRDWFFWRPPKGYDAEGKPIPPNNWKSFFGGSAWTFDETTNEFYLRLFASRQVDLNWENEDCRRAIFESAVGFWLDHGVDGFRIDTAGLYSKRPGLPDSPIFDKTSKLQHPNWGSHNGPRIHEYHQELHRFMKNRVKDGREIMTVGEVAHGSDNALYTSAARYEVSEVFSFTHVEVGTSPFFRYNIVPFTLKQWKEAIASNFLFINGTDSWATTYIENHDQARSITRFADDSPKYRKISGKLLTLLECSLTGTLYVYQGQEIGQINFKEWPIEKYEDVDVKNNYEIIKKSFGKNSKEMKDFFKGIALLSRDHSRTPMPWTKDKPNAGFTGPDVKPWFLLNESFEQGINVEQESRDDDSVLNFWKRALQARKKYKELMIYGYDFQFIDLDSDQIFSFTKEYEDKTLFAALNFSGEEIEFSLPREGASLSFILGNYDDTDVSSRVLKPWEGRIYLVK
# urease, sequence (P07374 whole entry, looked up): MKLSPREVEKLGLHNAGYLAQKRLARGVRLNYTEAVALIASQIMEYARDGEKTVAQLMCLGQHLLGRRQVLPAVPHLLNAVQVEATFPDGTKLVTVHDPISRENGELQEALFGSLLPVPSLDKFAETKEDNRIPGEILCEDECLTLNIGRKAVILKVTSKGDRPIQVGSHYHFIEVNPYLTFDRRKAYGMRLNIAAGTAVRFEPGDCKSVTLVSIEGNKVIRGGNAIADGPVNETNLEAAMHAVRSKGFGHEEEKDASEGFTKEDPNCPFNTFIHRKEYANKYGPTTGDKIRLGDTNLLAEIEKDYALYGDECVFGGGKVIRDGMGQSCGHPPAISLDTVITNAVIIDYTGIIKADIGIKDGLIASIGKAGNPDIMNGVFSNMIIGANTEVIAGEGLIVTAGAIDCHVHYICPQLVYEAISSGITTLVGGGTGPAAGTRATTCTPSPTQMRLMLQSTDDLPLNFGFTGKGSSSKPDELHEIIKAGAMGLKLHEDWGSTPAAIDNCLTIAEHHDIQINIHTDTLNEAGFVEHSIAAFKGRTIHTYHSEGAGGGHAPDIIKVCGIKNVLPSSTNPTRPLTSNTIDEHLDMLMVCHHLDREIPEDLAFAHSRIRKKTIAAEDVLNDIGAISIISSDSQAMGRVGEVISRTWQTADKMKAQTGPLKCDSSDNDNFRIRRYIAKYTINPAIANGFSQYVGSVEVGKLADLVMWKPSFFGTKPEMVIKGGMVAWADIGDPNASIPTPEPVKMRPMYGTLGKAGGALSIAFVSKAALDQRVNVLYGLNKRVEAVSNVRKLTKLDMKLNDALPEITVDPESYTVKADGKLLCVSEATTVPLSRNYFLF
# AChE, sequence (P22303 32-614): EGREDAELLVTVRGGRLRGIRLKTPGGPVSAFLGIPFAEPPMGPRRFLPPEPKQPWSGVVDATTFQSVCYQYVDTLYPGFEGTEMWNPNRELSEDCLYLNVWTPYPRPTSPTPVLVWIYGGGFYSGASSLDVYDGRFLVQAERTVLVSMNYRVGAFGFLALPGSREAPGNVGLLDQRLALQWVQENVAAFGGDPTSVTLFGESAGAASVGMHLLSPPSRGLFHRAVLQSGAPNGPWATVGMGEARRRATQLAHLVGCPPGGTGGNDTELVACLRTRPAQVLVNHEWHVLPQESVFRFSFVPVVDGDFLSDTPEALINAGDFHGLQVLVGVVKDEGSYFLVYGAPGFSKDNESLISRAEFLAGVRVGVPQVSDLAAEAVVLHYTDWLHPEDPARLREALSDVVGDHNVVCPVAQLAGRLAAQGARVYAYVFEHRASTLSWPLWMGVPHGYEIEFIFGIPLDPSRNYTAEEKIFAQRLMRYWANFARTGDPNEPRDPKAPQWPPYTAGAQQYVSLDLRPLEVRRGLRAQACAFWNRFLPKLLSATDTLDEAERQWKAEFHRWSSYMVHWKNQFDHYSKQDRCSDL
SMILES,"α-glucosidase inhibition, inhibition (%) at 0.5 mM [1]","IC50 ([1]; read-out: α-glucosidase inhibition, IC50)","LOX inhibition, inhibition (%) at 0.25 mM [2]","AChE inhibition, inhibition (%) at 0.5 mM [3]",IC50 [3],"urease inhibition, inhibition (%) at 0.25 mM [4]","BChE inhibition, inhibition (%) at 0.5 mM [5]","IC50 ([4]; read-out: urease inhibition, IC50)"
"Cc1ccc(S(=O)(=O)N2CCC(c3nnc(SCC(=O)NC4CCCCC4)n3C)CC2)cc1 [Compound 12a, 1-(4-toluenesulfonyl)-4-[3-(N-cyclohexyl-2-ethanamoylthio)-4-methyl-4H-1,2,4-triazol-5-yl] piperidine]",87.25 ± 1.65%,135 ± 1.39 µM,39.47 ± 0.82%,52.37 ± 0.78%,476.3 ± 0.57 µM,25.34 ± 1.42%,21.93 ± 0.62%,–
"Cc1ccc(S(=O)(=O)N2CCC(c3nnc(SCC(=O)Nc4cccc(C)c4C)n3C)CC2)cc1 [Compound 12i, 1-(4-toluenesulfonyl)-4-{3-[N-(2,3-dimethylphenyl)-2-ethanamoylthio]-4-methyl-4H-1,2,4-triazol-5-yl} piperidine]",31.53 ± 1.37%,–,24.12 ± 0.59%,82.51 ± 0.85%,117.4 ± 0.64 µM,75.82 ± 1.79%,36.47 ± 0.75%,143 ± 1.52 µM
